Paper PMC7696433, “Carbohydrate Hydrolase-Inhibitory Activity of Juice-Based Phenolic Extracts in Correlation to Their Anthocyanin/Copigment Profile” (Molecules, 2020)

Assays:
[1] = target: T1, porcine pancreatic α-amylase (Sus scrofa, UniProt P00690); test: In vitro α-amylase inhibition study (CNPG3 substrate, absorbance 405 nm); type: biochemical; conditions: 2 mM of single substance; mean ± SD, n = 3
T1 construct: α-amylase from porcine pancreas; purchased Sigma-Aldrich (Taufkirchen, Germany); host or cells: porcine pancreas
T1 sequence (P00690 16-511): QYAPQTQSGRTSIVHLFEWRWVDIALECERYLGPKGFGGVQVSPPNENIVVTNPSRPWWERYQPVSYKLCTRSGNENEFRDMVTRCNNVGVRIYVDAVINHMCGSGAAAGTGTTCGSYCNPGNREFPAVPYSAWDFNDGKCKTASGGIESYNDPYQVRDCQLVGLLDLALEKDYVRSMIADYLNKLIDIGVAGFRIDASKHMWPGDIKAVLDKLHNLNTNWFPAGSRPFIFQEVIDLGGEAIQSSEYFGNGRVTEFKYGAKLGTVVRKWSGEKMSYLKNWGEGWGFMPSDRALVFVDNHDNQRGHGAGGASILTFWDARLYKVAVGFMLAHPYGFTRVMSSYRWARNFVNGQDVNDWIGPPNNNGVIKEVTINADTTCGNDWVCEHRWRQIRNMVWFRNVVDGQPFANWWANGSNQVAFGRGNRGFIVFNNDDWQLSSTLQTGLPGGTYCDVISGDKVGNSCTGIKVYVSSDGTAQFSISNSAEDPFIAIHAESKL
Description: The α-amylase inhibition assay was based on a previously described spectrophotometric method. […] Briefly, 20 μL aliquots of the sample (in five different concentrations), the positive control, or the negative control were each mixed with 70 μL of 40 mM phosphate buffered saline (PBS) at pH 6.9 containing 30 U/mL of porcine pancreatic α-amylase and incubated in a 96-well microplate at 37 °C for 10 min. After pre-incubation, 100 μL of substrate solution (40 mM PBS with 4 mM 2-chloro-4-nitrophenyl-α-D-maltotrioside) was added, and the resulting mixtures were incubated at 37 °C for 8 min. Their absorbance was then measured at λ 405 nm using a microplate reader (Biotek, Bad Friedrichshall, Germany). Each sample was measured in triplicate.

[2] = tested on: α-glucosidase from Saccharomyces cerevisiae; test: In vitro α-glucosidase inhibition study (pNPG substrate, absorbance 405 nm); type: biochemical; conditions: 2 mM of single substance; mean ± SD, n = 3
Description: The α-glucosidase inhibition assay used 4-nitrophenyl-α-D-glucopyranoside as substrate. 20 μL aliquots of the sample (in five different concentrations) or negative and positive control solutions were each mixed with 70 μL enzyme solution (1 U/mL) in 0.1 M PBS (pH 6.8). After incubation at 25 °C for 10 min, 100 μL of 4 mM pNPG solution in PBS was added and incubated in a 96-well microplate for 5 min at 25 °C. The absorbance was measured at λ 405 nm using a microplate reader (Biotek, Bad Friedrichshall, Germany). Each sample was measured in triplicate.

Row | Inhibition (%) of α-amylase [1] [%] | Inhibition (%) of α-glucosidase [2] [%] | SMILES
1 | – | 4.9 ± 5.2 | OC[C@H]1O[C@@H](Oc2cc3c(O[C@@H]4O[C@H](CO)[C@@H](O)[C@H](O)[C@H]4O)cc(O)cc3[o+]c2-c2ccc(O)c(O)c2)[C@H](O)[C@@H](O)[C@@H]1O [cyanidin 3,5-diglucoside]
2 | – | 7.8 ± 5.5 | OC[C@H]1O[C@@H](Oc2cc3c(O)cc(O)cc3[o+]c2-c2ccc(O)c(O)c2)[C@H](O)[C@@H](O)[C@@H]1O [cyanidin 3-glucoside]
3 | 3.8 ± 0.2 | 8.7 ± 0.6 | O=C1OC[C@H]2OC(O)[C@H](O)[C@@H](O)[C@@H]2OC(=O)c2cc(O)c(O)c(O)c2-c2c(O)c(O)c3oc(=O)c4c(c(O)c(O)c5oc(=O)c2c3c54)-c2c1cc(O)c(O)c2O (mixture of isomers) [punicalin]
4 | 11.0 ± 0.8 | 6.0 ± 0.8 | O=c1oc2c(O)c(O)cc3c(=O)oc4c(O)c(O)cc1c4c23 [ellagic acid]
5 | 18.7 ± 1.2 | – | Oc1cc(O)c2cc(O[C@@H]3OC[C@H](O)[C@H](O)[C@H]3O)c(-c3ccc(O)c(O)c3)[o+]c2c1 [cyanidin 3-arabinoside]
6 | 11.5 ± 2.5 | 4.6 ± 2.2 | O=C(/C=C/c1ccc(O)c(O)c1)O[C@@H](C(=O)O)[C@@H](O)C(=O)O [caftaric acid]
7 | 7.6 ± 1.8 | – | C[C@@H]1O[C@@H](OC[C@H]2O[C@@H](Oc3cc4c(O)cc(O)cc4[o+]c3-c3ccc(O)c(O)c3)[C@H](O)[C@@H](O)[C@@H]2O)[C@H](O)[C@H](O)[C@H]1O [cyanidin 3-rutinoside]
8 | 16.0 ± 3.1 | 4.5 ± 3.3 | O=C(/C=C/c1ccc(O)c(O)c1)O[C@H]1[C@H](O)C[C@](O)(C(=O)O)C[C@H]1O [4-caffeoylquinic acid]
9 | – | 35.5 ± 2.4 | Oc1cc(O)c2cc(O)c(-c3ccc(O)c(O)c3)[o+]c2c1 [Cyanidin]
10 | 11.3 ± 0.5 | – | COc1cc(-c2[o+]c3cc(O)cc(O)c3cc2O[C@@H]2O[C@H](CO)[C@@H](O)[C@H](O)[C@H]2O)ccc1O [peonidin glucoside, Peonidin 3-glucoside]
11 | 7.7 ± 2.5 | – | COc1cc(-c2[o+]c3cc(O)cc(O)c3cc2O[C@@H]2O[C@H](CO)[C@@H](O)[C@H](O)[C@H]2O)cc(O)c1O [petunidin glucoside, Petunidin 3-glucoside]

Row | SMILES | Inhibition (%) of α-amylase [1] [%] | Inhibition (%) of α-glucosidase [2] [%]
12 | OC[C@H]1O[C@@H](Oc2cc3c(O)cc(O)cc3[o+]c2-c2cc(O)c(O)c(O)c2)[C@H](O)[C@@H](O)[C@@H]1O [delphinidin glucoside, Delphinidin 3-glucoside] | 12.7 ± 1.9 | –
13 | O=C(/C=C/c1ccc(O)c(O)c1)O[C@@H]1C[C@](O)(C(=O)O)C[C@@H](O)[C@H]1O [3-caffeoylquinic acid] | 13.8 ± 1.4 | 3.6 ± 2.2
14 | O=C(/C=C/c1ccc(O)c(O)c1)O[C@@H]1C[C@](O)(C(=O)O)C[C@@H](O)[C@H]1O [chlorogenic acid] | 20.3 ± 2.3 | 1.6 ± 3.1
15 | COc1cc(-c2[o+]c3cc(O)cc(O)c3cc2O[C@@H]2O[C@H](CO)[C@@H](O)[C@H](O)[C@H]2O)cc(OC)c1O [malvidin glucoside, Malvidin 3-glucoside] | 9.1 ± 5.6 | –
16 | O=C1O[C@H]2[C@@H]3OC(=O)c4cc(O)c(O)c(O)c4-c4c(O)c(O)c5oc(=O)c6c(c(O)c(O)c7oc(=O)c4c5c76)-c4c(cc(O)c(O)c4O)C(=O)OC[C@H]3OC(O)[C@@H]2OC(=O)c2cc(O)c(O)c(O)c2-c2c1cc(O)c(O)c2O (mixture of isomers) [punicalagin] | 4.8 ± 2.6 | 11.5 ± 1.0
17 | O=c1c(O[C@@H]2O[C@H](CO)[C@@H](O)[C@H](O)[C@H]2O)c(-c2ccc(O)cc2)oc2cc(O)cc(O)c12 [kaempferol 3-glucoside] | 30.3 ± 2.2 | 13.2 ± 0.7
18 | O=c1c(O[C@@H]2O[C@H](CO)[C@H](O)[C@H](O)[C@H]2O)c(-c2ccc(O)c(O)c2)oc2cc(O)cc(O)c12 [quercetin 3-galactoside] | 28.0 ± 1.0 | 8.3 ± 1.2
